Tested on: SW 1271 complex tumor spheroid viability
Assay: Anticancer human tumor SW 1271 cell line growth inhibition;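 also: spheroids exposed to agents for seven days before readout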;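 as to viability, T/C: percent of DMSO vehicle control luminescence so 100% = vehicle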
Settings: for IC50: curve of first compound; for viability, T/C: stronger effect = lower value
Source text: Multicellular complex tumor spheroid response to DNA repair inhibitors in combination with DNA-damaging drugs
This study explores the anticancer activities of DNA-damaging drugs and inhibitors of DNA damage repair, both as single agents and in combinations. Complex tumor spheroids comprised of malignant cells, endothelial cells and mesenchymal stem cells served as an in vitro model for human solid tumors. This model system incorporates physiologically relevant features and patient-derived or established malignant cell lines with clinically relevant genetic alterations from many tumor types. Twenty-six patient-derived or established malignant cell lines were evaluated representing sarcoma, melanoma, small cell lung cancer (SCLC), non-small cell lung cancer (NSCLC), as well as bladder, ovarian and pancreatic cancers. The concentration ranges selected for each drug and investigational agent were based upon clinically achievable concentrations if the clinical Cmax of the agent was known.
Compounds. The drugs and compounds olaparib (NSC753686), talazoparib (NSC767125), berzosertib (NSC777718), elimusertib (NSC800525), nedisertib (NSC802822), VX-984 (NSC792969), AZD-1390 (NSC803789), temozolomide (NSC362856), topotecan (NSC609699), trabectedin (NSC813783), staurosporine (NSC755774), and gemcitabine (NSC613327) were obtained from the National Cancer Institute (NCI) Developmental Therapeutics Program Chemical Repository. The FDA-approved anticancer drug set is available from the Developmental Therapeutics Program at https://dtp.cancer.gov/organization/dscb/obtaining/available_plates.htm. […] The stock solutions were prepared in dimethyl sulfoxide (DMSO, Sigma-Aldrich, St. Louis, MO, cat. D2650) at 400-fold the tested concentration and stored at -70 degrees C. Prior to their use, the stock solutions were diluted in fresh medium and the final DMSO concentration in the assay was 0.25% (v/v). All drugs and investigational agents were tested over a range starting from a high concentration at or near the clinical Cmax and decreasing in half-log increments. If the clinical Cmax for an agent had not been determined, the highest concentration tested was 10 microM.
Cell Lines. The patient-derived cancer cell (PDC) lines: 156681-154-R-J1-PDC, 283228-195-R-J1-PDC, 287954-098-R-J1-PDC, 292921-168-R-J2-PDC, 349418-098-R-PDC, 425362-245-T-J1-PDC, 556581-035-R-J1-PDC, and BL0293-F563-PDC were received from the NCI Patient-Derived Models Repository (PDMR, https://pdmr.cancer.gov). The established cell lines HS-SY-2 (RRID:CVCL_8719), MPNST, and SYO-1 (RRID:CVCL_7146) were obtained from the Sloan Kettering Institute. The alveolar soft parts sarcoma cell line ASPS-1 (RRID:CVCL_S738) was established at the NCI and grown from internal seed stocks. The following established cell lines were purchased from the American Type Culture Collection (ATCC, Manassas, VA): G-401 (ATCC, cat. CRL-1441, RRID:CVCL_0270), SW982 (ATCC, cat. HTB-93, RRID:CVCL_1734), VA-ES-BJ (ATCC, cat. CRL-2138, RRID:CVCL_1785), NCI-H719 (ATCC, cat. CRL-5837, RRID:CVCL_1582), NCI-H196 (ATCC, cat. CRL-5823, RRID:CVCL_1509), NCI-H841 (ATCC, cat. CRL-5845, RRID:CVCL_1595), NCI-H1618 (ATCC, cat. CRL-5879, RRID:CVCL_1480), NCI-H1876 (ATCC, cat. CRL-5902, RRID:CVCL_1503), DMS 114 (ATCC, cat. CRL-2066; RRID:CVCL_1174), NCI-H211 (ATCC, cat. CRL-5824; RRID:CVCL_1529), and SW 1271 (ATCC, cat. CRL-2177, RRID:CVCL_1716). The small cell lung cancer cell line COR-L88 was purchased from Sigma-Aldrich (cat. 92031917-1VL, RRID:CVCL_1141). The non-small cell lung cancer cell lines NCI-H226 (RRID:CVCL_1544) and NCI-H322M (RRID:CVCL_1557) were established at the NCI and grown from internal seed stocks. Pooled donor human umbilical vein endothelial cells (HUVEC, Lonza, cat. CC-2519) and human mesenchymal stem cells (hMSC, Lonza, cat. PT-2501) were purchased from Lonza (Walkersville, MD).
Cell Culture. All cells were maintained in an incubator at 37 degrees C and 5% CO2 with 95% humidity. […]

[1] = second compound 0.003 µM, first compound 0.0316 µM
[2] = second compound 0.003 µM, first compound 0.1 µM
[3] = second compound 0.003 µM, first compound 0.316 µM
[4] = second compound 0.003 µM, first compound 1 µM
[5] = second compound 0.003 µM, first compound 3.16 µM
[6] = second compound 0.003 µM, first compound 10 µM

`CC(C)n1c(=O)n(C)c2cnc3cc(F)c(-c4ccc(OCCCN5CCCCC5)nc4)cc3c21` + CC[C@@]1(O)C(=O)OCc2c1cc1n(c2=O)Cc2cc3c(CN(C)C)c(O)ccc3nc2-1 was tested, and the IC50 (second compound 0.003 µM) was < 31.6 nM, the IC50 (second compound 0.00949 µM) was < 31.6 nM and the IC50 (second compound 0.03 µM) was < 31.6 nM. For the same compound, the IC50 (second compound 0.0949 µM) was < 31.6 nM, the IC50 (second compound 0.3 µM) was < 31.6 nM and the viability, T/C [1] was 28.2%. The viability, T/C [2] was 26.8%, the viability, T/C [3] was 25% and the viability, T/C [4] was 27.7%. It also gave a viability, T/C [5] of 19.3%, a viability, T/C [6] of 7.91% and a viability, T/C (second compound 0.00949 µM, first compound 0.0316 µM) of 15.9%. The viability, T/C (second compound 0.00949 µM, first compound 0.1 µM) was 17.9%, the viability, T/C (second compound 0.00949 µM, first compound 0.316 µM) was 14.5% and the viability, T/C (second compound 0.00949 µM, first compound 1 µM) was 12.2%. The viability, T/C (second compound 0.00949 µM, first compound 3.16 µM) was 11.3%, the viability, T/C (second compound 0.00949 µM, first compound 10 µM) was 5.27% and the viability, T/C (second compound 0.03 µM, first compound 0.0316 µM) was 20.4%. It also gave a viability, T/C (second compound 0.03 µM, first compound 0.1 µM) of 17.7%, a viability, T/C (second compound 0.03 µM, first compound 0.316 µM) of 16% and a viability, T/C (second compound 0.03 µM, first compound 1 µM) of 15.8%. The viability, T/C (second compound 0.03 µM, first compound 3.16 µM) was 8.12%, the viability, T/C (second compound 0.03 µM, first compound 10 µM) was 3.67% and the viability, T/C (second compound 0.0949 µM, first compound 0.0316 µM) was 23.9%. For the same compound, the viability, T/C (second compound 0.0949 µM, first compound 0.1 µM) was 24.6%, the viability, T/C (second compound 0.0949 µM, first compound 0.316 µM) was 23.2% and the viability, T/C (second compound 0.0949 µM, first compound 1 µM) was 19.8%. For the same compound, the viability, T/C (second compound 0.0949 µM, first compound 3.16 µM) was 7.87%, the viability, T/C (second compound 0.0949 µM, first compound 10 µM) was 3.44% and the viability, T/C (second compound 0.3 µM, first compound 0.0316 µM) was 14.6%. For the same compound, the viability, T/C (second compound 0.3 µM, first compound 0.1 µM) was 13.2%, the viability, T/C (second compound 0.3 µM, first compound 0.316 µM) was 16.4% and the viability, T/C (second compound 0.3 µM, first compound 1 µM) was 16.1%. For the same compound, the viability, T/C (second compound 0.3 µM, first compound 3.16 µM) was 7.25% and the viability, T/C (second compound 0.3 µM, first compound 10 µM) was 4.47%.
For `COc1ccc([C@@H](O)c2cc(-c3ncnc4cc(N5CCOCC5)ccc34)c(F)cc2Cl)nn1` + COc1cc2c(cc1O)CCNC21CSC2c3c(OC(C)=O)c(C)c4c(c3C(COC1=O)N1C(O)C3Cc5cc(C)c(OC)c(O)c5C(C21)N3C)OCO4, the IC50 (second compound 30 pM) was 1080 nM, the IC50 (second compound 94.9 pM) was 168 nM and the IC50 (second compound 0.0003 µM) was < 31.6 nM. The IC50 (second compound 0.000949 µM) was < 31.6 nM, the IC50 (second compound 0.003 µM) was < 31.6 nM and the viability, T/C (second compound 30 pM, first compound 0.0316 µM) was 84.9%. It also gave a viability, T/C (second compound 30 pM, first compound 0.1 µM) of 86.9%, a viability, T/C (second compound 30 pM, first compound 0.316 µM) of 77.4% and a viability, T/C (second compound 30 pM, first compound 1 µM) of 51.1%. It also gave a viability, T/C (second compound 30 pM, first compound 3.16 µM) of 21.7%, a viability, T/C (second compound 30 pM, first compound 10 µM) of 6.57% and a viability, T/C (second compound 94.9 pM, first compound 0.0316 µM) of 71.1%. The viability, T/C (second compound 94.9 pM, first compound 0.1 µM) was 51.8%, the viability, T/C (second compound 94.9 pM, first compound 0.316 µM) was 39.6% and the viability, T/C (second compound 94.9 pM, first compound 1 µM) was 33.5%. For the same compound, the viability, T/C (second compound 94.9 pM, first compound 3.16 µM) was 25.9%, the viability, T/C (second compound 94.9 pM, first compound 10 µM) was 4.84% and the viability, T/C (second compound 0.0003 µM, first compound 0.0316 µM) was 35.7%. The viability, T/C (second compound 0.0003 µM, first compound 0.1 µM) was 33.3%, the viability, T/C (second compound 0.0003 µM, first compound 0.316 µM) was 31.1% and the viability, T/C (second compound 0.0003 µM, first compound 1 µM) was 17.6%. For the same compound, the viability, T/C (second compound 0.0003 µM, first compound 3.16 µM) was 1.97%, the viability, T/C (second compound 0.0003 µM, first compound 10 µM) was 0.12% and the viability, T/C (second compound 0.000949 µM, first compound 0.0316 µM) was 2.95%. The viability, T/C (second compound 0.000949 µM, first compound 0.1 µM) was 2.6%, the viability, T/C (second compound 0.000949 µM, first compound 0.316 µM) was 1.24% and the viability, T/C (second compound 0.000949 µM, first compound 1 µM) was 0.04%. The viability, T/C (second compound 0.000949 µM, first compound 3.16 µM) was 0.02%, the viability, T/C (second compound 0.000949 µM, first compound 10 µM) was 0.1% and the viability, T/C [1] was 0.1%. The viability, T/C [2] was 0.08%, the viability, T/C [3] was 0.08% and the viability, T/C [4] was 0.08%. For the same compound, the viability, T/C [5] was 0.09% and the viability, T/C [6] was 0.15%.

From PubChem BioAssay AID1845215 (Molecular Pharmacology Branch, DTP, NCI, 2023)
